This is an account of results in PubChem BioAssay (NCI).

Experiment in all cases: growth of human tumour cells (NCI), 48 h
The subject of experiment [1] is M14 melanoma.
Experiment [2] deals with MALME-3M melanoma.
In experiment [3] the test system is IGROV1 ovarian.
In experiment [4] the test system is UO-31 renal.
For experiment [5], the system named is BT-549 breast.
The subject of experiment [6] is UACC-62 melanoma.
Experiment [7] concerns HS 578T breast.
Experiment [8] has as its system SNB-75 CNS.
Experiment [9] relates to MCF7 breast.
In experiment [10] the test system is LOX IMVI melanoma.

Molecules are shown by their SMILES.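 Step 1: Grow cells in 96-well plates. Step 2: Expose to compound for 48 hours at 5 concentrations. Step 3: Interpolate endpoints linearly; if unreached, use highest concentration. Here, GI50 denotes the concentration required for 50% inhibition of growth. TGI is the concentration that stops growth completely.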

As to `O=C(c1ccco1)c1c(C(F)(F)F)nc2ccc(C(F)(F)F)cc2[n+]1[O-]`, the GI50 in experiment [1] was 35.8 µM; in experiment [2] it was 20.8 µM; in experiment [3] it was 35.6 µM; in experiment [4], 38.7 µM; in experiment [5], 24.1 µM; in experiment [6], 44.2 µM. Moreover, the GI50 is 21.2 µM in experiment [7], 16.9 µM in experiment [8], 33.6 µM in experiment [9] and 47.8 µM in [10]. The TGI was above 100 µM in experiment [1]; 47.7 µM in experiment [2]; above 92.7 µM in experiment [3]; above 100 µM in experiment [4]; 59.8 µM in experiment [5]; above 100 µM in [6]. Further, the TGI in experiment [7] is 54.5 µM; in [8] it was 36.4 µM; in experiment [9] it was above 100 µM; in experiment [10], above 100 µM.
As to `CCC(C)[C@H](NC(=O)NC(=O)NC(=O)CI)C(=O)OC` (stereo not given in full), the GI50 in [1] is 2.47 µM; in experiment [2], 1.89 µM; in experiment [3] it was 3.47 µM; in experiment [4] it was 1.73 µM; in experiment [5], 10.6 µM; in experiment [6], 11.3 µM. The GI50 was 23.5 µM in [7], 10.3 µM in experiment [8], 3.02 µM in [9] and 1.69 µM in experiment [10]. Also, the TGI in [1] came out at 6.8 µM; in [2] it was 4 µM; in experiment [3], 12.1 µM; in experiment [4], 3.28 µM; in experiment [5], 22.4 µM; in experiment [6], 24.7 µM. The TGI in experiment [7] stood at 73.5 µM; in experiment [8], 26.1 µM; in experiment [9], 12.9 µM; in experiment [10], 3.27 µM.
Turning to `CC1SC2(CCC(c3ccccc3)CC2)N(NC(=O)c2[nH]c3ccc(F)cc3c2-c2ccccc2)C1=O` (stereo not given), the GI50 was 5.67 µM in experiment [1]; 16 µM in experiment [2]; 3.89 µM in [3]; 6.48 µM in [4]; 5.45 µM in [5]; 6.21 µM in experiment [6]. For the same compound, the GI50 in experiment [7] is 12 µM; in experiment [8], 19.4 µM; in experiment [9] it was 4.78 µM; in experiment [10], 2.9 µM. Moreover, the TGI in experiment [1] turned out to be 21.9 µM; in [2], 49.8 µM; in experiment [3], 20 µM; in [4], 33.1 µM; in [5] it was 34.6 µM; in [6], 27.4 µM. For the same compound, the TGI turned out to be 68.3 µM in experiment [7], 42.2 µM in experiment [8], 24.1 µM in experiment [9] and 14 µM in experiment [10].
As for `c1ccc(CN2CCC3(CC2)SSC2(CCN(Cc4ccccc4)CC2)SS3)cc1`, the TGI in experiment [1], in [2], in [3], in experiment [4], in experiment [5] and in experiment [6] was above 100 µM throughout. The TGI in experiment [7], in experiment [8], in experiment [9] and in experiment [10] was above 100 µM each time.
As to `O=C(O)C1C2C=CC(C2)C1C(=O)O` (stereo not given), the GI50 in experiment [1], in [2], in [3], in experiment [4], in [5] and in [6] was above 100 µM throughout. In addition, the GI50 in experiment [7], in [8], in experiment [9] and in [10] was above 100 µM each time. The TGI in [1], in experiment [2], in experiment [3], in experiment [4], in [5] and in experiment [6] was above 100 µM in each case. Besides, the TGI in experiment [7], in experiment [8], in experiment [9] and in [10] was above 100 µM in each case.
In the case of `CN1CC[C@]2(c3cccc(O)c3)CC(=O)/C(=C/c3ccccc3)[C@H]1C2`, the TGI in experiment [1] worked out at 9.46 µM; in [2] it was 9.51 µM; in experiment [3] it was 12.6 µM; in experiment [4], 9.83 µM; in experiment [5], 14.5 µM; in experiment [6], 12.7 µM. Further, the TGI amounted to 12.1 µM in [7], 14.4 µM in [8], 10.4 µM in experiment [9] and 4.1 µM in [10]. Besides, the GI50 is 3.38 µM in [3]; 2 µM in experiment [4]; 3.64 µM in experiment [5]; 3.06 µM in experiment [6]; 3.89 µM in experiment [8].
For the compound `CC[C@@H](C(=O)[C@H](C)[C@H](O)[C@@H](C)[C@H]1O[C@H]([C@@H](CC)C(=O)O)CC[C@H]1C)C1O[C@]2(C=C[C@@H](O)[C@]3(CC[C@@](C)([C@H]4CC[C@](O)(CC)[C@H](C)O4)O3)O2)[C@H](C)C[C@@H]1C` (stereo not given in full), the GI50 was 1.13 µM in [1]; 0.241 µM in experiment [2]; 2.07 µM in [3]; 1.42 µM in experiment [4]; 0.239 µM in experiment [5]; 1.05 µM in [6]. The GI50 in experiment [7] was 0.239 µM; in experiment [8], 0.777 µM; in experiment [9] it was 0.148 µM; in [10], 0.706 µM. The TGI in experiment [1] is 2.89 µM; in experiment [2], 1.35 µM; in experiment [3], above 100 µM; in experiment [4], 23.9 µM; in experiment [5], 8.63 µM; in experiment [6], 2.28 µM. Besides, the TGI stood at 18.4 µM in [7], 4.63 µM in experiment [8], 11.9 µM in [9] and 6.56 µM in [10].
As for `O=[N+]([O-])c1ccc(Sc2nc(Cl)nc(NC3CCCC3)n2)cc1`, the GI50 in experiment [1] was above 10 µM; in experiment [2], above 10 µM; in experiment [3] it was 2.84 µM; in [4] it was 3.08 µM; in [5] it was above 10 µM; in [6], above 10 µM. Further, the GI50 in experiment [7], in [8], in [9] and in experiment [10] was above 10 µM each time. Further, the TGI in experiment [1], in [2], in experiment [3], in experiment [4], in experiment [5] and in experiment [6] was above 10 µM each time. For the same compound, the TGI in experiment [7], in experiment [8], in [9] and in [10] was above 10 µM in each case.
